Experimental data taken from US8476255B2, “Histone deacetylase inhibitors” (Orchid Chemicals & Pharmaceuticals Limited, priority 2007, dated 2013).

Tests used:
[1] = system: NCIH460 (lung) cells; test: Anti-cancer screen (MTT), NCIH460; type: cell-based; conditions: Homo sapiens, NCI-H460, NCIH460, 48 hours, MTT; for GI50: read-out: Cell growth inhibition NCIH460 (Lung) GI50; for LC50: read-out: Cell growth inhibition NCIH460 (Lung) LC50; for IC (TGI): read-out: Cell growth inhibition NCIH460 (Lung) TGI
Method: (§1) Experimental drugs were screened for anti-cancer activity in three cell lines using five concentrations for each compound. The cell lines —HCT 116 (colon), NCIH460 (lung) and U251 (glioma) were maintained in DMEM containing 10% fetal bovine serum. 96-well microtiter plates are inoculated with cells in 100 μL of cell suspension (5×10^4 cells/mL) for 24 hours at 37° C., 5% CO2, 95% air and 100% relative humidity. A separate plate with these cell lines is also inoculated to determine cell viability before the addition of the compounds (T0).
(§2) Following 24-hours incubation, test compounds were added to the 96 well plates. Each plate contains one of the above cell lines and the following samples in triplicate: five different dilutions (0.01, 0.1, 1, 10 and 100 μM) of four test compounds, appropriate dilutions of a cytotoxic standard and growth medium (untreated) wells. Test compounds were dissolved in DMSO to prepare 20 mM stock solutions on the day of drug addition and serial dilutions were carried out in complete growth medium at 2× strength such that 100 μL added to wells gave final concentrations (0.01, 0.1, 1, 10 and 100 μM) in the well. SAHA was used as standard drug in these experiments.
(§3) For T0 measurement, 24 hours after seeding the cells, 20 μL of 3-(4,5-dimethyl-2-thiazolyl)-2,5-diphenyl-2H-tetrazolium (MTT) solution per well was added to the ‘T0’ plate and incubated for 3 hours at 37° C. in a CO2 incubator. The plate containing cells and test compounds was treated similarly after 48 hours of incubation. After 3 hours of MTT addition, well contents were aspirated carefully followed by addition of 150 μL DMSO per well. Plates were agitated to ensure dissolution of the formazan crystals in DMSO and absorbance was read at 570 nm (A570).
(§4) (Mosmann T. Rapid colorimetric assay for cellular growth and survival: application to proliferation and cytotoxicity assays. J Immunol Methods 1983; 65(1-2): 55-63; Anne Monks et al. Feasibility of high-flux anticancer drug screen using a diverse panel of cultured human tumor cell lines”. JNCI, Vol. 83, No. 11, 1991).

[2] = system: HCT 116 (colon) cells; test: Anti-cancer screen (MTT), HCT 116; type: cell-based; conditions: Homo sapiens, HCT-116, HCT116, 48 hours, MTT; for GI50: read-out: Cell growth inhibition HCT116 (Colon) GI50; for CC50: read-out: Cell growth inhibition HCT116 (Colon) LC50; for IC (TGI): read-out: Cell growth inhibition HCT116 (Colon) TGI
Method: as §1, §2, §3, §4

[3] = system: U251 (glioma) cells; test: Anti-cancer screen (MTT), U251; type: cell-based; conditions: Homo sapiens, U-251, U251, 48 hours, MTT; for GI50: read-out: Cell growth inhibition U251 (Glioma) GI50; for LC50 (concentration giving 50% net cell kill relative to the time-zero cell count): read-out: Cell growth inhibition U251 (Glioma) LC50; for IC (TGI): read-out: Cell growth inhibition U251 (Glioma) TGI
Method: as §1, §2, §3, §4

[4] = system: NCIH460, HCT116 and U251 cells; test: Anti-cancer screen, mean GI50 over cell lines; type: cell-based; conditions: mean over cell lines; read-out: Cell growth inhibition Mean GI50
Method: as §1, §2, §3, §4

[5] = system: HDAC (Mouse Liver Extract); test: HDAC inhibition assay using Boc-Lys(Ac)-AMC substrate; type: biochemical; conditions: mouse liver enzyme
Method: Inhibition of HDAC has been implicated to modulate transcription and to induce apoptosis or differentiation in cancer cells. The fluorometric assay provides a fast and fluorescence based method that eliminates radioactivity, extractions or chromatography, as used in traditional assays. The assay is based on two steps. First, the HDAC fluorometric substrate, which comprises an acetylated lysine side chain, is incubated with a sample containing HDAC activity (Mouse Liver Extract). Deacetylation of the substrate sensitizes the substrate, in the second step; treatment with the Trypsin stop solution produces a fluorophore that can be easily analyzed using fluorescence plate reader. Assay was done in 96-well black microplate and total volume of the assay was […]. […] The plate was pre-incubated at 37° C. for 5 minutes. […] The plate was incubated at 37° C. for 30 min. The reaction was stopped by adding 100 μL, of Trypsin stop solution and incubating at 37° C. for 15-30 min. Measuring the fluorescence at excitation wavelength of 360 nm and emission wavelength of 460 nm monitored the release of AMC. Buffer alone and substrate alone served as blank. […] (Dennis Wegener et al, Anal. Biochem, 321, 2003, 202-208).

Compound | GI50 [1] [µM] | LC50 [1] [µM] | IC (TGI) [1] [µM] | GI50 [2] [µM] | CC50 [2] [µM] | IC (TGI) [2] [µM] | GI50 [3] [µM] | LC50 (concentration giving 50% net cell kill relative to the time-zero cell count) [3] [µM] | IC (TGI) [3] [µM] | GI50 [4] [µM] | HDAC inhibition % (1 μM) [5] [%] | HDAC inhibition % (10 μM) [5] [%] | IC50 [5] [nM]
CS(=O)(=O)c1ccc(/C=C(/C(=O)NCCCCCC(=O)NO)c2ccc(F)cc2)cc1 [Compound 87, 6-(2-(4-Fluorophenyl)-3-(4-methylsulfonylphenyl)acrylamido)-N-hydroxy hexanamide] | > 100 | > 100 | > 100 | 44 | > 100 | 88 | 20 | > 100 | > 100 | > 100 | 43.6 | 81.6 | 
COC(=O)c1ccc(/C=C(/C(=O)NCc2ccc(C(=O)Nc3ccccc3N)cc2)c2ccc(F)c(F)c2)cc1 [Compound 38, N-(2-Aminophenyl)-4-((3-(4-carbmethoxyphenyl)-2-(3,4-difluorophenyl)acrylamido)methyl)benzamide] | 50 | > 100 | > 100 | 6.5 | > 100 | 80 | 15 | > 100 | 70 | 23.8 | 20.6 | 34.9 | 
O=C(CCCCCNC(=O)NC(=O)/C(=C/c1ccccc1)c1ccccc1)NO [Compound 101] | 10 | 82 | 45 | 2.9 | 13.2 | 7.6 | 7 | 76 | 35 | 6.6 | 89.5 | 97.1 | 70
COC(=O)c1ccc(/C=C(/C(=O)NCc2ccc(C(=O)Nc3ccccc3N)cc2)c2cccs2)cc1 [Compound 36, N-(2-Aminophenyl)-4-((3-(4-carbmethoxyphenyl)-2-(thiophen-2-yl)acrylamido)methyl)benzamide] | 20 | > 100 | > 100 | 0.7 | > 100 | 35 | 18 | 90 | 50 | 12.9 | 30.5 | 31.9 | 
Nc1ccccc1NC(=O)c1ccc(CNC(=O)/C(=C/c2ccc(F)cc2Cl)c2ccccc2)cc1 [Compound 9, N-(2-Aminophenyl)-4-((3-(2-chloro-4-fluorophenyl)-2-(phenyl)acrylamido)methyl)benzamide] | 90 | > 100 | > 100 | 58 | > 100 | 94 | 60 | > 100 | 79 | 69.3 | 12.1 | 32.1 | 
O=C(NCc1ccc(C(=O)NO)cc1)/C(=C/c1ccc(F)cc1)c1ccc(C(F)(F)F)cc1 [Compound 50, 4-((2-(4-Trifluoromethyllphenyl)-3-(4-fluorophenyl)acrylamido)methyl)-N-hydroxybenzamide] | 38 | 92 | 69 | 22 | 88 | 55 | 43 | 87 | 72 | 34.3 | 50.1 | 87.1 | 
CSc1ccc(/C=C(/C(=O)NCc2ccc(C(=O)NO)cc2)c2ccc(F)cc2)cc1 [Compound 52, 4-((2-(4-Fluorophenyl)-3-(4-methylthiophenyl)acrylamido)methyl)-N-hydroxybenzamide] | 12 | 82 | 53 | 5.6 | 69 | 9.6 | 10 | 75 | 54 | 9.2 | 83.5 | 95.7 | 60
COc1ccc(/C=C(/C(=O)NCc2ccc(C(=O)NO)cc2)c2ccc(F)cc2)cc1 [Compound 53, 4-((2-(4-Fluorophenyl)-3-(4-methoxyphenyl)acrylamido)methyl)-N-hydroxybenzamide] | 5.5 | 49 | 20 | 3 | 51 | 17 | 2.9 | 30 | 7 | 3.8 | 88.6 | 94.4 | 40
COc1ccc(/C=C(/C(=O)NCc2ccc(/C=C/C(=O)NO)cc2)c2ccccc2F)cc1OC [Compound 78, (1E)-N-(4-(3-(Hydroxyamino)-3-oxoprop-1-enyl)benzyl)-2-(2-fluorophenyl)-3-(3,4-dimethoxyphenyl)acrylamide] | 2 | > 100 | > 100 | 4 | > 100 | 30 | 1 | > 100 | 8 | 2.3 | 87.6 | 91.3 | 
Nc1ccccc1NC(=O)c1ccc(CNC(=O)/C(=C/C2CC2)c2ccc(F)cc2)cc1 [Compound 14, N-(2-Aminophenyl)-4-((3-(cyclopropyl)-2-(4-fluorophenyl)acrylamido)methyl)benzamide] | 8 | 82 | 49 | 5.6 | 81 | 24 |  |  |  | 6.8 | 22.8 | 31.6 | 
